Source: patent US8148391B2 (Cephalon, Inc., priority 2006, dated 2012)

Tests used:
[1] = molecular target: T1, c-Met (cytoplasmic domain) (Homo sapiens, UniProt P08581); assay: c-Met Kinase Assay (same methods as for ALK, with modifications); type: biochemical; conditions: 1 μM ATP (Km level), 10 ng/mL c-Met; read-out: cMet Activity (c-Met kinase inhibition, IC50 class)
T1 construct: 10 ng/mL c-Met (cytoplasmic domain, Invitrogen Corporation #PV3143); purchased Invitrogen Corporation PV3143
Summary of the method: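 This plate-based kinase format uses immobilized phospholipase C-γ as substrate, phosphorylated by c-Met cytoplasmic domain (10 ng/mL) at 37° C for 15 minutes.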

[2] = molecular target: T2, baculovirus-expressed ALK (Homo sapiens, UniProt Q9UM73); assay: ALK Kinase Assay (ELISA-type, time-resolved fluorescence); type: biochemical; conditions: 1 μM ATP (Km level), 30 ng/ml ALK, 37° C., 15 minutes; read-out: ALK Activity (ALK kinase inhibition, IC50 class)
T2 construct: host or cells: baculovirus expression system
T2 sequence (Q9UM73 19-1620): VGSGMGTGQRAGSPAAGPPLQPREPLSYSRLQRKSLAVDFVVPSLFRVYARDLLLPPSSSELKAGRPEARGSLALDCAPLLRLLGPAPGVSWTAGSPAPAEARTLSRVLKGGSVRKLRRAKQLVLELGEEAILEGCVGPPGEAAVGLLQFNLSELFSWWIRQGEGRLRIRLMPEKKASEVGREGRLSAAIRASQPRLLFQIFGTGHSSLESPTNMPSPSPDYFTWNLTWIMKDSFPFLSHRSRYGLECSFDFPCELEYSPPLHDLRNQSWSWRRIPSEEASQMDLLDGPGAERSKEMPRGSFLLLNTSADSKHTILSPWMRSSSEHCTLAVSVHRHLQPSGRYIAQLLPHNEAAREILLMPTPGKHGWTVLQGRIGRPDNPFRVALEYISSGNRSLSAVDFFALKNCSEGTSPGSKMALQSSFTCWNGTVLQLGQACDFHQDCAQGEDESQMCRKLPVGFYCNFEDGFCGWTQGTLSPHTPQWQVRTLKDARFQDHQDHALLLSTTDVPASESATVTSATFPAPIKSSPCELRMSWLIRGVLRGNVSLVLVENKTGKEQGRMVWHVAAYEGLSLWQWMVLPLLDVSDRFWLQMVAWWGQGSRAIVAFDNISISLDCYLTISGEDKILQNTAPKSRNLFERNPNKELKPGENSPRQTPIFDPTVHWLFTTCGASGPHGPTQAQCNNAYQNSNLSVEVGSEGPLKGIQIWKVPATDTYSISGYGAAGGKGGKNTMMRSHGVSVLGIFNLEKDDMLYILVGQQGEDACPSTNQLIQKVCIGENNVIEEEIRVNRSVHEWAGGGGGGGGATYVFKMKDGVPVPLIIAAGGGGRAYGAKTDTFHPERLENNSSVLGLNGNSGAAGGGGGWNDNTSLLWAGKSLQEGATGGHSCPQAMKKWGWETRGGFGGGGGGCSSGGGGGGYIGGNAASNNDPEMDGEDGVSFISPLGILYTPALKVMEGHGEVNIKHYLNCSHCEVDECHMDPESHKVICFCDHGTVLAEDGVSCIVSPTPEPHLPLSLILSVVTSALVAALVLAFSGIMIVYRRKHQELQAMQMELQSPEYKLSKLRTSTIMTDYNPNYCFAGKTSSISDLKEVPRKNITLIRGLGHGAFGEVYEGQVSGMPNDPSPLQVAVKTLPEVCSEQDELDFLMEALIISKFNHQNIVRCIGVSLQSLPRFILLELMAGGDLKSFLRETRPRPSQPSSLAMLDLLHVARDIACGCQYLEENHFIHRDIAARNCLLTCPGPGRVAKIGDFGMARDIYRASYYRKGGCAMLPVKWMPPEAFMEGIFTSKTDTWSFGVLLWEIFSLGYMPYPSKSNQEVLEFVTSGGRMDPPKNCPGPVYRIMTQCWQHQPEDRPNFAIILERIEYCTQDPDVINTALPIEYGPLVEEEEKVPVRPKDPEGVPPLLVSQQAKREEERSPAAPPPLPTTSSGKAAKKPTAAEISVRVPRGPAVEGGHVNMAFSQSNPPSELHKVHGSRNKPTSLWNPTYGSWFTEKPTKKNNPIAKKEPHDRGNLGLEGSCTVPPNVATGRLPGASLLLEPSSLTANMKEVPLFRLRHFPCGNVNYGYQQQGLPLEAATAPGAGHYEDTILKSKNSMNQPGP
Summary of the method: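 Substrate coating: phospholipase C-γ, 10 μg/mL in TBS. Kinase step: 30 ng/ml ALK, 15 min, 37° C. Detection and analysis: Eu-N1 PT66 antibody, with IC50 fitted as a sigmoidal variable-slope dose-response curve.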

T1 sequence (P08581 956-1390 limits assumed): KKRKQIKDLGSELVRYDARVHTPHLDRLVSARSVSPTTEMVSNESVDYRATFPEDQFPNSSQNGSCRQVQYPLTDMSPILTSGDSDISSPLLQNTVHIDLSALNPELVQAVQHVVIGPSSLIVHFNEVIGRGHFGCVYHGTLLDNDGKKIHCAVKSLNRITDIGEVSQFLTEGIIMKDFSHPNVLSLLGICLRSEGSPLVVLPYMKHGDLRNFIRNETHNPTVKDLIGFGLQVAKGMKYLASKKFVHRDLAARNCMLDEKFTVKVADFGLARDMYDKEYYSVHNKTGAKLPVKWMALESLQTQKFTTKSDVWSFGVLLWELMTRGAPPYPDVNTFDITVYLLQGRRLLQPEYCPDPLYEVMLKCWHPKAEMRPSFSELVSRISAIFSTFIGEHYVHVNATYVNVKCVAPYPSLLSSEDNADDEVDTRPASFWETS

Compound | IC50 [1] [nM] | IC50 [2] [nM]
CC1(C)CCC(=O)Nc2cc(Nc3ncc(Cl)c(Nc4ccccc4OCCC#N)n3)ccc21 [Example 1238, 3-{2-[5-Chloro-2-(5,5-dimethyl-2-oxo-2,3,4,5-tetrahydro-1H-1-benzazepin-8-ylamino)-pyrimidin-4-ylamino]-phenoxy}-propionitrile] | < 100 | < 100
CNC(=O)c1ccc(N)cc1Nc1nc(Nc2ccc3c(c2)C(C)(C)CCC(=O)N3)ncc1Cl [Example 1239, 4-Amino-2-[5-chloro-2-(5,5-dimethyl-2-oxo-2,3,4,5-tetrahydro-1H-1-benzazepin-7-ylamino)-pyrimidin-4-ylamino]-N-methyl-benzamide] | 1000 to 10000 | < 100
COCCN1CCc2ccc(Nc3ncc(Cl)c(Nc4ccccc4OCC#N)n3)cc2CC1 [Example 1240, (2-{5-Chloro-2-[3-(2-methoxy-ethyl)-2,3,4,5-tetrahydro-1H-3-benzazepin-7-ylamino]-pyrimidin-4-ylamino}-phenoxy)-acetonitrile] | < 100 | < 100
COCCN1CCc2ccc(Nc3ncc(Cl)c(Nc4ccccc4OCC(N)=O)n3)cc2CC1 [Example 1241, 2-(2-{5-Chloro-2-[3-(2-methoxy-ethyl)-2,3,4,5-tetrahydro-1H-3-benzazepin-7-ylamino]-pyrimidin-4-ylamino}-phenoxy)-acetamide] | 100 to 1000 | 100 to 1000
COCCN1CCc2ccc(Nc3ncc(Cl)c(Nc4ccccc4OCC(=O)O)n3)cc2CC1 [Example 1242, (2-{5-Chloro-2-[3-(2-methoxy-ethyl)-2,3,4,5-tetrahydro-1H-3-benzazepin-7-ylamino]-pyrimidin-4-ylamino}-phenoxy)-acetic acid] | 100 to 1000 | < 100
CCN1C(=O)CCC(C)(C)c2ccc(Nc3ncc(Cl)c(Nc4ccccc4S(=O)(=O)C(C)C)n3)cc21 [Example 1243, 8-{5-Chloro-4-[2-(propane-2-sulfonyl)-phenylamino]-pyrimidin-2-ylamino}-1-ethyl-5,5-dimethyl-1,3,4,5-tetrahydro-1-benzazepin-2-one] | < 100 | < 100
CNC(=O)c1ccc(NC(C)=O)cc1Nc1nc(Nc2ccc3c(c2)C(C)(C)CCC(=O)N3)ncc1Cl [Example 1244, 4-Acetylamino-2-[5-chloro-2-(5,5-dimethyl-2-oxo-2,3,4,5-tetrahydro-1H-1-benzazepin-7-ylamino)-pyrimidin-4-ylamino]-N-methyl-benzamide] | 1000 to 10000 | 1000 to 10000
COCCN1CCc2ccc(Nc3ncc(Cl)c(Nc4c(C)cccc4OCC#N)n3)cc2CC1 [Example 1245, (2-{5-Chloro-2-[3-(2-methoxy-ethyl)-2,3,4,5-tetrahydro-1H-3-benzazepin-7-ylamino]-pyrimidin-4-ylamino}-3-methyl-phenoxy)-acetonitrile] | 100 to 1000 | 100 to 1000
CC(=O)N1CCC(=O)NCc2cc(Nc3ncc(Cl)c(Nc4c(C)cccc4OCC#N)n3)ccc21 [Example 1246, {2-[2-(1-Acetyl-4-oxo-1,2,3,4,5,6-hexahydro-benzo[b][1,5]diazocin-8-ylamino)-5-chloro-pyrimidin-4-ylamino]-3-methyl-phenoxy}-acetonitrile] | < 100 | 100 to 1000
CCN1C(=O)CCC(C)(C)c2ccc(Nc3ncc(Cl)c(Nc4ccccc4S(C)(=O)=O)n3)cc21 [Example 1248, 8-[5-Chloro-4-(2-methanesulfonyl-phenylamino)-pyrimidin-2-ylamino]-1-ethyl-5,5-dimethyl-1,3,4,5-tetrahydro-1-benzazepin-2-one] | < 100 | < 100
COCCN1CCc2ccc(Nc3ncc(Cl)c(Nc4ccccc4S(C)(=O)=O)n3)cc2CC1 [Example 1249, 5-Chloro-N(4)-(2-methanesulfonyl-phenyl)-N(2)-[3-(2-methoxy-ethyl)-2,3,4,5-tetrahydro-1H-3-benzazepin-7-yl]-pyrimidine-2,4-diamine] | 100 to 1000 | < 100
CN1C(=O)CCC(C)(C)c2cc(Nc3ncc(Cl)c(Nc4ccccc4S(C)(=O)=O)n3)ccc21 [Example 1250, 7-[5-Chloro-4-(2-methanesulfonyl-phenylamino)-pyrimidin-2-ylamino]-1,5,5-trimethyl-1,3,4,5-tetrahydro-1-benzazepin-2-one] | 100 to 1000 | < 100
CC(C)S(=O)(=O)c1cccc(F)c1Nc1nc(Nc2ccc3c(c2)NC(=O)CCC3(C)C)ncc1Cl [Example 1251, 8-{5-Chloro-4-[2-fluoro-6-(propane-2-sulfonyl)-phenylamino]-2-ylamino}-5,5-dimethyl-1,3,4,5-tetrahydro-1-benzazepin-2-one] | 1000 to 10000 | 100 to 1000
CCN1C(=O)CCC(C)(C)c2ccc(Nc3ncc(Cl)c(Nc4c(F)cccc4S(=O)(=O)C(C)C)n3)cc21 [Example 1252, 8-{5-Chloro-4-[2-fluoro-6-(propane-2-sulfonyl)-phenylamino]-pyrimidin-2-ylamino}-1-ethyl-5,5-dimethyl-1,3,4,5-tetrahydro-1-benzazepin-2-one] | 1000 to 10000 | < 100
COCCN1CCc2ccc(Nc3ncc(Cl)c(Nc4c(F)cccc4S(=O)(=O)C(C)C)n3)cc2CC1 [Example 1253, 5-Chloro-N(4)-[2-fluoro-6-(propane-2-sulfonyl)-phenyl]-N(2)-[3-(2-methoxy-ethyl)-2,3,4,5-tetrahydro-1H-3-benzazepin-7-yl]-pyrimidine-2,4-diamine] | 1000 to 10000 | < 100
CC(C)S(=O)(=O)c1cccc(F)c1Nc1nc(Nc2ccc3c(c2)C(C)(C)CCC(=O)N3)ncc1Cl [Example 1254, 7-{5-Chloro-4-[2-fluoro-6-(propane-2-sulfonyl)-phenylamino]-pyrimidin-2-ylamino}-5,5-dimethyl-1,3,4,5-tetrahydro-1-benzazepin-2-one] | 1000 to 10000 | < 100
CC(C)S(=O)(=O)c1cccc(F)c1Nc1nc(Nc2ccc3c(c2)NC(=O)CCC3)ncc1Cl [Example 1255, 8-{5-Chloro-4-[2-fluoro-6-(propane-2-sulfonyl)-phenylamino]-pyrimidin-2-ylamino}-1,3,4,5-tetrahydro-1-benzazepin-2-one] | 1000 to 10000 | 100 to 1000
NC(=O)c1cccc(F)c1Nc1nc(Nc2ccc3c(c2)NC(=O)CCC3)ncc1Cl [Example 1256, 2-[5-Chloro-2-(2-oxo-2,3,4,5-tetrahydro-1H-1-benzazepin-8-ylamino)-pyrimidin-4-ylamino]-3-fluoro-benzamide] | 1000 to 10000 | 100 to 1000
COCCN1CCc2ccc(Nc3ncc(Cl)c(Nc4c(F)cccc4C(N)=O)n3)cc2CC1 [Example 1257, 2-{5-Chloro-2-[3-(2-methoxy-ethyl)-2,3,4,5-tetrahydro-1H-3-benzazepin-7-ylamino]-pyrimidin-4-ylamino}-3-fluoro-benzamide] | 100 to 1000 | < 100
CCN1C(=O)CCC(C)(C)c2ccc(Nc3ncc(Cl)c(Nc4c(F)cccc4S(C)(=O)=O)n3)cc21 [Example 1259, 8-[5-Chloro-4-(2-fluoro-6-methanesulfonyl-phenylamino)-pyrimidin-2-ylamino]-1-ethyl-5,5-dimethyl-1,3,4,5-tetrahydro-1-benzazepin-2-one] | 1000 to 10000 | 100 to 1000
CC1(C)CCC(=O)Nc2ccc(Nc3ncc(Cl)c(Nc4c(F)cccc4S(C)(=O)=O)n3)cc21 [Example 1260, 7-[5-Chloro-4-(2-fluoro-6-methanesulfonyl-phenylamino)-pyrimidin-2-ylamino]-5,5-dimethyl-1,3,4,5-tetrahydro-1-benzazepin-2-one] | 1000 to 10000 | < 100
CS(=O)(=O)c1cccc(F)c1Nc1nc(Nc2ccc3c(c2)NC(=O)CCC3)ncc1Cl [Example 1261, 8-[5-Chloro-4-(2-fluoro-6-methanesulfonyl-phenylamino)-pyrimidin-2-ylamino]-1,3,4,5-tetrahydro-1-benzazepin-2-one] | > 10000 | 1000 to 10000
CN(CCC#N)c1cccc(F)c1Nc1nc(Nc2ccc3c(c2)NC(=O)CCC3(C)C)ncc1Cl [Example 1263, 3-({2-[5-Chloro-2-(5,5-dimethyl-2-oxo-2,3,4,5-tetrahydro-1H-1-benzazepin-8-ylamino)-pyrimidin-4-ylamino]-3-fluoro-phenyl}-methyl-amino)-propionitrile] | 1000 to 10000 | 100 to 1000
CCN1C(=O)CCC(C)(C)c2ccc(Nc3ncc(Cl)c(Nc4c(F)cccc4N(C)CCC#N)n3)cc21 [Example 1264, 3-({2-[5-Chloro-2-(1-ethyl-5,5-dimethyl-2-oxo-2,3,4,5-tetrahydro-1H-1-benzazepin-8-ylamino)-pyrimidin-4-ylamino]-3-fluoro-phenyl}-methyl-amino)-propionitrile] | 1000 to 10000 | 100 to 1000
CN(CCC#N)c1cccc(F)c1Nc1nc(Nc2ccc3c(c2)C(C)(C)CCC(=O)N3)ncc1Cl [Example 1266, 3-({2-[5-Chloro-2-(5,5-dimethyl-2-oxo-2,3,4,5-tetrahydro-1H-1-benzazepin-7-ylamino)-pyrimidin-4-ylamino]-3-fluoro-phenyl}-methyl-amino)-propionitrile] | 1000 to 10000 | < 100
CN(CCC#N)c1cccc(F)c1Nc1nc(Nc2ccc3c(c2)C(C)(C)CCC(=O)N3)ncc1Cl [Example 1267, 3-({2-[5-Chloro-2-(5,5-dimethyl-2-oxo-2,3,4,5-tetrahydro-1H-1-benzazepin-7-ylamino)-pyrimidin-4-ylamino]-3-fluoro-phenyl}-methyl-amino)-propionitrile] | 1000 to 10000 | 100 to 1000
